# Laboratory results from US20240415914A1, “Water Dispersible Cannabinoid Compositions” (priority 2021, published 2024).
# Test: Stability of cannabinoid and Vitamin E components of Beverage 1 (AB White) stored at 8° C. and 21-25° C., LCMSMS over 570 days
# Type: physicochemical
# Settings: for Stability in AB White, 8° C. (content by LCMSMS): beverage stored at 8° C.; for Stability in AB White, 21-25° C. (content by LCMSMS): beverage stored at 21-25° C.
# Experimental: The LCMSMS was calibrated for 0-1000 ng/ml cannabinoids with the same resin material used in the preparation of the concentrates. At each time period, 100 ml of beverage was diluted with 10 ml of methanol and injected into the LCMSMS for analysis.
structure (smiles),measurement,setting,value
"CCCCCc1cc(O)c(C/C=C(\C)CCC=C(C)C)c(O)c1 [CBG, cannabigerol]","Stability in AB White, 8° C. (content by LCMSMS)",day 0,4.87 µg/mL
same,"Stability in AB White, 8° C. (content by LCMSMS)",day 1,4.74 µg/mL
same,"Stability in AB White, 8° C. (content by LCMSMS)",day 2,4.91 µg/mL
same,"Stability in AB White, 8° C. (content by LCMSMS)",day 3,4.74 µg/mL
same,"Stability in AB White, 8° C. (content by LCMSMS)",day 5,4.88 µg/mL
same,"Stability in AB White, 8° C. (content by LCMSMS)",day 8,4.86 µg/mL
same,"Stability in AB White, 8° C. (content by LCMSMS)",day 9,4.89 µg/mL
same,"Stability in AB White, 8° C. (content by LCMSMS)",day 10,4.77 µg/mL
same,"Stability in AB White, 8° C. (content by LCMSMS)",day 11,4.87 µg/mL
same,"Stability in AB White, 8° C. (content by LCMSMS)",day 12,4.87 µg/mL
same,"Stability in AB White, 8° C. (content by LCMSMS)",day 15,4.81 µg/mL
same,"Stability in AB White, 8° C. (content by LCMSMS)",day 16,4.84 µg/mL
same,"Stability in AB White, 8° C. (content by LCMSMS)",day 17,4.78 µg/mL
same,"Stability in AB White, 8° C. (content by LCMSMS)",day 18,4.81 µg/mL
same,"Stability in AB White, 8° C. (content by LCMSMS)",day 19,4.83 µg/mL
same,"Stability in AB White, 8° C. (content by LCMSMS)",day 22,4.75 µg/mL
same,"Stability in AB White, 8° C. (content by LCMSMS)",day 23,4.89 µg/mL
same,"Stability in AB White, 8° C. (content by LCMSMS)",day 24,4.83 µg/mL
same,"Stability in AB White, 8° C. (content by LCMSMS)",day 25,4.89 µg/mL
same,"Stability in AB White, 8° C. (content by LCMSMS)",day 26,4.77 µg/mL
same,"Stability in AB White, 8° C. (content by LCMSMS)",day 29,4.91 µg/mL
same,"Stability in AB White, 8° C. (content by LCMSMS)",day 30,4.79 µg/mL
same,"Stability in AB White, 8° C. (content by LCMSMS)",day 60,4.68 µg/mL
same,"Stability in AB White, 8° C. (content by LCMSMS)",day 90,4.66 µg/mL
same,"Stability in AB White, 8° C. (content by LCMSMS)",day 120,4.89 µg/mL
same,"Stability in AB White, 8° C. (content by LCMSMS)",day 150,4.83 µg/mL
same,"Stability in AB White, 8° C. (content by LCMSMS)",day 180,4.71 µg/mL
same,"Stability in AB White, 8° C. (content by LCMSMS)",day 210,4.73 µg/mL
same,"Stability in AB White, 8° C. (content by LCMSMS)",day 240,4.69 µg/mL
same,"Stability in AB White, 8° C. (content by LCMSMS)",day 270,4.72 µg/mL
same,"Stability in AB White, 8° C. (content by LCMSMS)",day 300,4.74 µg/mL
same,"Stability in AB White, 8° C. (content by LCMSMS)",day 330,4.69 µg/mL
same,"Stability in AB White, 8° C. (content by LCMSMS)",day 360,4.66 µg/mL
same,"Stability in AB White, 8° C. (content by LCMSMS)",day 390,4.68 µg/mL
same,"Stability in AB White, 8° C. (content by LCMSMS)",day 420,4.66 µg/mL
same,"Stability in AB White, 8° C. (content by LCMSMS)",day 450,4.68 µg/mL
same,"Stability in AB White, 8° C. (content by LCMSMS)",day 480,4.64 µg/mL
same,"Stability in AB White, 8° C. (content by LCMSMS)",day 510,4.49 µg/mL
same,"Stability in AB White, 8° C. (content by LCMSMS)",day 540,4.53 µg/mL
same,"Stability in AB White, 8° C. (content by LCMSMS)",day 570,4.46 µg/mL
same,"Stability in AB White, 21-25° C. (content by LCMSMS)",day 0,4.87 µg/mL
same,"Stability in AB White, 21-25° C. (content by LCMSMS)",day 1,4.73 µg/mL
same,"Stability in AB White, 21-25° C. (content by LCMSMS)",day 2,4.72 µg/mL
same,"Stability in AB White, 21-25° C. (content by LCMSMS)",day 3,4.75 µg/mL
same,"Stability in AB White, 21-25° C. (content by LCMSMS)",day 5,4.89 µg/mL
same,"Stability in AB White, 21-25° C. (content by LCMSMS)",day 8,4.90 µg/mL
same,"Stability in AB White, 21-25° C. (content by LCMSMS)",day 9,4.79 µg/mL
same,"Stability in AB White, 21-25° C. (content by LCMSMS)",day 10,4.68 µg/mL
same,"Stability in AB White, 21-25° C. (content by LCMSMS)",day 11,4.74 µg/mL
same,"Stability in AB White, 21-25° C. (content by LCMSMS)",day 12,4.88 µg/mL
same,"Stability in AB White, 21-25° C. (content by LCMSMS)",day 15,4.87 µg/mL
same,"Stability in AB White, 21-25° C. (content by LCMSMS)",day 16,4.80 µg/mL
same,"Stability in AB White, 21-25° C. (content by LCMSMS)",day 17,4.80 µg/mL
same,"Stability in AB White, 21-25° C. (content by LCMSMS)",day 18,4.72 µg/mL
same,"Stability in AB White, 21-25° C. (content by LCMSMS)",day 19,4.68 µg/mL
same,"Stability in AB White, 21-25° C. (content by LCMSMS)",day 22,4.68 µg/mL
same,"Stability in AB White, 21-25° C. (content by LCMSMS)",day 23,4.85 µg/mL
same,"Stability in AB White, 21-25° C. (content by LCMSMS)",day 24,4.80 µg/mL
same,"Stability in AB White, 21-25° C. (content by LCMSMS)",day 25,4.86 µg/mL
same,"Stability in AB White, 21-25° C. (content by LCMSMS)",day 26,4.78 µg/mL
same,"Stability in AB White, 21-25° C. (content by LCMSMS)",day 29,4.76 µg/mL
same,"Stability in AB White, 21-25° C. (content by LCMSMS)",day 30,4.73 µg/mL
same,"Stability in AB White, 21-25° C. (content by LCMSMS)",day 60,4.83 µg/mL
same,"Stability in AB White, 21-25° C. (content by LCMSMS)",day 90,4.65 µg/mL
same,"Stability in AB White, 21-25° C. (content by LCMSMS)",day 120,4.59 µg/mL
same,"Stability in AB White, 21-25° C. (content by LCMSMS)",day 150,4.63 µg/mL
same,"Stability in AB White, 21-25° C. (content by LCMSMS)",day 180,4.79 µg/mL
same,"Stability in AB White, 21-25° C. (content by LCMSMS)",day 210,4.75 µg/mL
same,"Stability in AB White, 21-25° C. (content by LCMSMS)",day 240,4.79 µg/mL
same,"Stability in AB White, 21-25° C. (content by LCMSMS)",day 270,4.62 µg/mL
same,"Stability in AB White, 21-25° C. (content by LCMSMS)",day 300,4.67 µg/mL
same,"Stability in AB White, 21-25° C. (content by LCMSMS)",day 330,4.71 µg/mL
same,"Stability in AB White, 21-25° C. (content by LCMSMS)",day 360,4.69 µg/mL
same,"Stability in AB White, 21-25° C. (content by LCMSMS)",day 390,4.70 µg/mL
same,"Stability in AB White, 21-25° C. (content by LCMSMS)",day 420,4.72 µg/mL
same,"Stability in AB White, 21-25° C. (content by LCMSMS)",day 450,4.73 µg/mL
same,"Stability in AB White, 21-25° C. (content by LCMSMS)",day 480,4.46 µg/mL
same,"Stability in AB White, 21-25° C. (content by LCMSMS)",day 510,4.51 µg/mL
same,"Stability in AB White, 21-25° C. (content by LCMSMS)",day 540,4.48 µg/mL
same,"Stability in AB White, 21-25° C. (content by LCMSMS)",day 570,4.47 µg/mL
